This is an account of results in paper PMC10569036.

Data set [1] in a line: shake flask on a mixture of 185; loss from the water phase only; LC-QTOF peak areas. The conditions noted are these: room.
Data set [2] can be described thus: shake flask on a mixture of 185; loss from the water phase only; LC-Orbitrap peak areas. The conditions noted are these: room.

Structures are written as SMILES.

As for `C[C@H](CCC(=O)O)[C@H]1CC[C@H]2[C@@H]3CC[C@@H]4C[C@H](O)CC[C@]4(C)[C@H]3CC[C@]12C`, in data set [1], the “log partition 1-octanol / HPLC water, unbuffered, traces of methanol / DMSO” value (from here on “log partition 1-octanol / HPLC water”) worked out at 0.06003 log10; the “log partition butyl acetate / HPLC water, unbuffered, traces of methanol / DMSO” value (shortened to “log partition butyl acetate / HPLC water”) was -0.5367 log10; the “log partition chloroform / HPLC water, unbuffered, traces of methanol / DMSO” value (“log partition chloroform / HPLC water” below) is 0.5205 log10; the “log partition cyclohexane / HPLC water, unbuffered, traces of methanol / DMSO” value (shortened to “log partition cyclohexane / HPLC water”) is -1.544 log10. For the same compound, in data set [1], the “log partition dichloromethane / HPLC water, unbuffered, traces of methanol / DMSO” value came out at 0.7072 log10; the “log partition n-hexane / HPLC water, unbuffered, traces of methanol / DMSO” value (from here on “log partition n-hexane / HPLC water”) is on record as -1.606 log10; the “log partition n-octane / HPLC water, unbuffered, traces of methanol / DMSO” value (from here on “log partition n-octane / HPLC water”) is given as -1.699 log10; the “log partition n-undecane / HPLC water, unbuffered, traces of methanol / DMSO” value (from here on “log partition n-undecane / HPLC water”) is -0.8435 log10. For the same compound, in data set [1], the “log partition oleylalcohol / HPLC water, unbuffered, traces of methanol / DMSO” value (“log partition oleylalcohol / HPLC water” below) is recorded as -0.1203 log10 and the “log partition toluene / HPLC water, unbuffered, traces of methanol / DMSO” value (“log partition toluene / HPLC water” for short) is reported as -1.053 log10. In data set [2], the “log partition 1-octanol / HPLC water” value is recorded as 1.225 log10; the “log partition butyl acetate / HPLC water” value amounted to 0.9932 log10; the “log partition chloroform / HPLC water” value came out at 1.423 log10; the “log partition cyclohexane / HPLC water” value is on record as 0.1846 log10. Moreover, in data set [2], the “log partition dichloromethane / HPLC water, unbuffered, traces of methanol / DMSO” value is on record as 0.6345 log10; the “log partition n-hexane / HPLC water” value is listed as -0.08609 log10; the “log partition n-octane / HPLC water” value is recorded as 0.2702 log10; the “log partition n-undecane / HPLC water” value turned out to be 0.118 log10. In addition, in data set [2], the “log partition oleylalcohol / HPLC water” value is -0.1437 log10 and the “log partition toluene / HPLC water” value worked out at 0.6204 log10.
`Cc1cc2c3c(c1)C(c1ccccc1)=N[C@@H](NC(=O)c1ccncc1)C(=O)N3CC2`: in data set [1], the “log partition 1-octanol / HPLC water” value was 2.552 log10; the “log partition butyl acetate / HPLC water” value was determined as 2.569 log10; the “log partition chloroform / HPLC water” value stood at 2.171 log10; the “log partition cyclohexane / HPLC water” value came to 0.1916 log10. Further, in data set [1], the “log partition dichloromethane / HPLC water, unbuffered, traces of methanol / DMSO” value came to 2.144 log10; the “log partition n-hexane / HPLC water” value was -0.2402 log10; the “log partition n-octane / HPLC water” value is on record as -0.1186 log10; the “log partition n-undecane / HPLC water” value is reported as -0.161 log10. In data set [1], the “log partition oleylalcohol / HPLC water” value is on record as 2.273 log10 and the “log partition toluene / HPLC water” value is 2.127 log10. Moreover, in data set [2], the “log partition 1-octanol / HPLC water” value is on record as 1.331 log10; the “log partition butyl acetate / HPLC water” value was 2.844 log10; the “log partition chloroform / HPLC water” value is 1.438 log10; the “log partition cyclohexane / HPLC water” value is 0.6947 log10. Further, in data set [2], the “log partition dichloromethane / HPLC water, unbuffered, traces of methanol / DMSO” value was found to be 2.402 log10; the “log partition n-hexane / HPLC water” value is -0.4559 log10; the “log partition n-octane / HPLC water” value came to 0.088 log10; the “log partition n-undecane / HPLC water” value was 0.07291 log10. Also, in data set [2], the “log partition oleylalcohol / HPLC water” value is 1.282 log10 and the “log partition toluene / HPLC water” value is 1.875 log10.
Turning to `O=C(Nc1ccccc1-c1ccc(Cl)cc1)c1cccnc1Cl`, in data set [1], the “log partition 1-octanol / HPLC water” value is recorded as 2.544 log10; the “log partition butyl acetate / HPLC water” value is recorded as 2.85 log10; the “log partition chloroform / HPLC water” value is on record as 2.789 log10; the “log partition cyclohexane / HPLC water” value turned out to be 1.857 log10. In addition, in data set [1], the “log partition dichloromethane / HPLC water, unbuffered, traces of methanol / DMSO” value is 2.321 log10; the “log partition n-hexane / HPLC water” value is given as 1.024 log10; the “log partition n-octane / HPLC water” value is 1.335 log10; the “log partition n-undecane / HPLC water” value is 1.129 log10. In data set [1], the “log partition oleylalcohol / HPLC water” value stood at 1.78 log10 and the “log partition toluene / HPLC water” value is given as 2.524 log10. Further, in data set [2], the “log partition 1-octanol / HPLC water” value was 3.752 log10; the “log partition butyl acetate / HPLC water” value turned out to be 4.674 log10; the “log partition chloroform / HPLC water” value is 1.201 log10; the “log partition cyclohexane / HPLC water” value was determined as 2.491 log10. Moreover, in data set [2], the “log partition dichloromethane / HPLC water, unbuffered, traces of methanol / DMSO” value was 2.846 log10; the “log partition n-hexane / HPLC water” value was determined as 1.664 log10; the “log partition n-octane / HPLC water” value amounted to 1.841 log10; the “log partition n-undecane / HPLC water” value is given as 2.234 log10. Also, in data set [2], the “log partition oleylalcohol / HPLC water” value stood at 3.336 log10 and the “log partition toluene / HPLC water” value stood at 3.533 log10.
Regarding `CCCOC(=O)c1ccc(C(=O)OCCC)nc1`, in data set [1], the “log partition 1-octanol / HPLC water” value is listed as 2.274 log10; the “log partition butyl acetate / HPLC water” value was determined as 2.305 log10; the “log partition chloroform / HPLC water” value worked out at 2.347 log10; the “log partition cyclohexane / HPLC water” value worked out at 2.074 log10. Also, in data set [1], the “log partition dichloromethane / HPLC water, unbuffered, traces of methanol / DMSO” value is reported as 2.554 log10; the “log partition n-hexane / HPLC water” value is listed as 2.244 log10; the “log partition n-octane / HPLC water” value is recorded as 2.086 log10; the “log partition n-undecane / HPLC water” value is given as 2.019 log10. In addition, in data set [1], the “log partition oleylalcohol / HPLC water” value is 2.412 log10 and the “log partition toluene / HPLC water” value was determined as 2.485 log10. Further, in data set [2], the “log partition 1-octanol / HPLC water” value is recorded as 1.279 log10; the “log partition butyl acetate / HPLC water” value is 1.476 log10; the “log partition chloroform / HPLC water” value came to 1.242 log10; the “log partition cyclohexane / HPLC water” value is recorded as 1.195 log10. In data set [2], the “log partition dichloromethane / HPLC water, unbuffered, traces of methanol / DMSO” value was determined as 1.399 log10; the “log partition n-hexane / HPLC water” value was found to be 1.051 log10; the “log partition n-octane / HPLC water” value amounted to 1.355 log10; the “log partition n-undecane / HPLC water” value turned out to be 0.8718 log10. In data set [2], the “log partition oleylalcohol / HPLC water” value is 1.396 log10 and the “log partition toluene / HPLC water” value was found to be 1.5 log10.
